Assay results published in US10975030B2, “Grp94 selective inhibitors and uses thereof” (University of Kansas, priority 2016, dated 2021).
Where two headings read alike, the source gives them in different places.

Legend:
[1] = Anti-proliferation assay (MTS/PMS), PC-3 MM-2; assay type: cell-based; settings: human, PC-3 MM-2 cells, PC-3 MM-2, 25 μM
Description: (§1) Anti-proliferation Assays. Cells were seeded (2000/well, 100 μL) in 96-well plates and incubated overnight. Following incubation, compounds with varying concentrations in DMSO (1% DMSO final concentration) were added and cells were returned to the incubator for 72 h. After 72 h, the cell viability was determined using an MTS/PMS cell proliferation kit (Promega) per the manufacturer's instructions. Absorption value from 1% DMSO wells were used as 100% proliferation, and values were adjusted accordingly.

[2] = tested on: integrin α2, integrin αL, Syne2, VAMP2, Rab10 in PC3-MM2 cells; assay: Cell fractionation and Western blot analysis of PC3-MM2 cells; assay type: cell-based; settings: 30 μM, 24 h, cytoplasmic (Cyto) fraction, compared to DMSO, FIG. 2A
Description: (§2) Chemicals and Cell culture. Compounds were dissolved in DMSO and stored at −20° C. until use. The PC3-MM2 and MDA-MB-231 cells were maintained in DMEM (Cellgro) media supplemented with streptomycin (500 μg/mL), penicillin (100 units/mL) and 10% FBS at 37° C. and 5% CO2.
(§3) Antibodies. The following antibodies were used for western blotting and/or immunofluorescence: goat anti-integrin α L #sc6609, rabbit anti-SYNE2 #sc99066, and rabbit anti-actin #sc1616-R (Santa Cruz Biotech-nology, Santa Cruz, Calif.); rabbit anti-Integrin α 2 #ab181548, rabbit anti-VAMP2 #ab3347 (Abcam, Cambridge, Mass.); Phalloidin 647 #A22287 (Invitrogen, Carlsbad Calif.); rabbit anti-Rab10 #4262S (Cell Signaling Technology, Danvers, Mass.).
Cell fractionation and Western Blot Analysis. […] After sedimenting the cell debris, the protein concentration of each lysate was measured in quadruplicate using the BCA protein assay and bovine serum albumin as the standard. The coefficient of variation was determined for each set of quadruplicate measures and if the variability exceeded 5%, the protein assay was repeated for that set of samples. […]

MDA-MB-231 cells = assay: Wound healing scratch assay, MDA-MB-231; assay type: cell-based; settings: 10 μM ('at 10 μM and 5 μM respectively'), 0, 16, 24 h, FIG. 3A
Description: as §2
(§4) Wound Healing Scratch Assay. The cells were seeded in a 24-well plate in complete media and allowed to form a monolayer. After monolayer formation, a scratch was introduced with a sterile 0.1-10 μl pipet tip. The media was replaced with fresh media in the absence or presence of the indicated drug concentrations. Photomicrographs were taken at different time points with an Olympus IX71 microscope using a 10x air lens and CellSans Dimensions software. The images were processed with Image J software.

PC-3 MM-2 cells = assay: Wound healing scratch assay, PC-3 MM-2; assay type: cell-based; settings: 5 μM ('at 10 μM and 5 μM respectively'), 0, 16, 24 h, FIG. 3B
Description: as §2, §4

PC3-MM2 cells = assay: Immunofluorescence / confocal microscopy analysis of PC3-MM2 cells; assay type: cell-based; settings: FIG. 2B; for F-actin localization: confocal microscopy, versus DMSO treated cells; for integrin α2 localization: immunofluorescence, versus untreated cells
Description: as §2, §3
Immunofluorescence Analysis. For cell imaging, 1 μm-Slide 8 well ibidiTreat IBIDI glass slides were used. PC3-MM2 cells were fixed with freshly made 4% (w/w) paraformaldehyde in PBS for 15 min, permeabilized with 0.1% (w/w) Tween 20 in PBS for 5 min and quenched with 0.1% (w/w) sodium borohydride for 5 min. The sections were blocked with 3% (w/w) BSA in PBS for 1 h and incubated with the primary antibody at a 1:100 concentration in 1% BSA in PBS overnight, prior to incubation with secondary antibody conjugated with Alexa Fluor 568 for 3 h. The sections were counterstained with DAPI and/or with Phalloidin to visualize DNA and filamentous actin (F-actin), respectively. The wells were washed three times with PBS after each step.
Confocal images were acquired using a custom epifluorescent/confocal microscope composed of the following components: an Olympus IX81 inverted spinning disc confocal microscope base (Olympus America, Center Valley, Pa.), a Prior microscope stage for automated image acquisition (Prior Scientific, Rockland, Mass.), an Olympus 60X oil Immersion objective for confocal images (Olympus) and a Hamamatsu Electron Multiplying Charge-Coupled Device (EMCCD) camera (Hamamatsu, Hamamatsu, Shizuoka Prefecture, Japan). Images were captured using the SlideBook acquisition and analysis software, (Intelligent Imaging Innovations (3i), Denver, Colo.).
Images were collected with 8-10 image stacks with a 0.3 micron step size through the cells. Images were processed using Image J software (NIH).

Hsp90α = Hsp90α (Homo sapiens (Human), UniProt P07900); assay: Fluorescence polarization (FP) assay, Hsp90α; assay type: binding
Description: (§5) Fluorescence Polarization. Assay buffer (25 μL, 20 mM HEPES pH 7.3, 50 mM KCl, 5 mM MgCl2, 1 mM DTT, 20 mM Na2MoO4, 0.01% NP-40, and 0.5 mg/mL BGG) was added to 96-well plate (black well, black bottom) followed by the desired compound at the indicated final concentrations in DMSO (1% DMSO final concentration). […] Plates were incubated with rocking for 5 h at 4° C. […] Percent FITC-GDA bound was determined by using the DMSO millipolarization unit (mP) as the 100% bound value and the 0% for FITC-GDA. Kd values were calculated from separate experiments performed in triplicate using GraphPad Prism.

[3] = biological target: Grp94 (recombinant cGrp94) (Canis lupus familiaris (Dog) (Canis familiaris), UniProt P41148); assay: Fluorescence polarization (FP) assay, cGrp94 with FITC-GDA; assay type: binding
Description: as §5

[4] = Anti-proliferation assay (MTS/PMS), MDA-MB-231; assay type: cell-based; settings: human, MDA-MB-231 cells, MDA-MB-231, 25 μM
Description: as §1

Akt = assay: Western blot of cytosolic Hsp90 client protein Akt; assay type: cell-based; settings: 30 μM (same concentration)
Description: (§6) Cell Culture. Cell culture was performed as described in the art.^25 Tetracycline-inducible Hek cells stably overexpressing I477N mutant myocilin were grown and maintained in Dulbecco's Modified Eagle's Medium supplemented with 10% fetal bovine serum (Invitrogen, penicillin (100 units/mL), streptomycin ([…]) and 1% GlutaMAX (Invitrogen) at 37 C and 5% CO2. Stably overexpressing cells were selected for using hygromycin B ([…]) (InvivoGen) and G418 ([…]) (Gibco). I477N myocilin expression was induced with tetracycline ([…]) for 48H prior to drug treatment.
(§7) Inhibitor Treatment. Inhibitors were solubilized in DMSO (Sigma Aldrich), and diluted to documented concentrations. Cells were treated drop wise with inhibitors 24H prior to cell harvest. DMSO concentration was diluted to 1% total cell medium volume.
(§8) Cell Harvest. Cell harvest was performed as previously described.^21 24H after inhibitor treatment, culture medium was removed and cells were washed 2× with ice cold PBS. […]
(§9) Western Blotting. Western blot analysis was performed as previously described.^41 Cell lysates were prepared at identical protein concentrations, as determined by BCA analysis, in 2× Laemmli sample buffer (Bio-Rad) and denatured by boiling for 5 min at 100 C. […]

Hsp70 = assay: Western blot of Hsp70 levels; assay type: cell-based; settings: compared to 17-AAG (5 μM reference)
Description: as §6, §7, §8, §9

I477N mutant myocilin = assay: Western blot of I477N mutant myocilin levels in tetracycline inducible HEK cells; assay type: cell-based; settings: 30 μM, 24 h, HEK cells over-expressing I477N myocilin
Description: as §6, §7, §8, §9

Grp94 (recombinant cGrp94), sequence (P41148 22-804): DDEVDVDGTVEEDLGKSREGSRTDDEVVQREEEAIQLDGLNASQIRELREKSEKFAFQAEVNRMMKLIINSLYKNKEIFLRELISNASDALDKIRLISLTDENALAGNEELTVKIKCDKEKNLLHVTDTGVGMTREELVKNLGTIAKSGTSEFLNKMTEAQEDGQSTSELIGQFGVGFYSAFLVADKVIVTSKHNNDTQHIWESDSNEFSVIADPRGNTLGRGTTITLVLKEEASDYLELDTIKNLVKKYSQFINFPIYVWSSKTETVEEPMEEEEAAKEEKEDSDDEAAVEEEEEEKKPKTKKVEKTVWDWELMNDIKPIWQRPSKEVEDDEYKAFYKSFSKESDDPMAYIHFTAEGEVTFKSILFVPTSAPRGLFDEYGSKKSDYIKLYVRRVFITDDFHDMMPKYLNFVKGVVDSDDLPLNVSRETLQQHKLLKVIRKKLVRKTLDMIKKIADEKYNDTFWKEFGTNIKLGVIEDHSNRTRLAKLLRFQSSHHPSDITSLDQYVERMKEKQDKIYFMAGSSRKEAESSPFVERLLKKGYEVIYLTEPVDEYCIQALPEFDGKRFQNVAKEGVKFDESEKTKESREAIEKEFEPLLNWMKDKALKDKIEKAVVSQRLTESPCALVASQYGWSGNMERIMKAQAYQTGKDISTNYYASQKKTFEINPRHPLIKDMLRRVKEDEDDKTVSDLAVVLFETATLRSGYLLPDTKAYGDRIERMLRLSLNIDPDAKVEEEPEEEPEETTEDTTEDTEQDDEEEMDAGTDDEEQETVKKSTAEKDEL

For `NC(=O)c1ccc(-n2cccc2Cc2ccccc2F)cc1N[C@H]1CC[C@H](O)CC1` [Compound 8e, 4-(2-(2-fluorobenzyl)-1H-pyrrol-1-yl)-2-(((1r,4r)-4-hydroxycyclohexyl)amino)benzamide], the viability at 72 h, 25 µM [1] was > 95%, the “levels of integrin α2, integrin αL, Syne2, VAMP2, and Rab10” value [2] was “reduced levels” and the “migration of MDA-MB-231 cells” value (MDA-MB-231 cells) was “inhibited migration”. For the same compound, the “migration of PC-3 MM-2 cells” value (PC-3 MM-2 cells) was “inhibited migration”, the F-actin localization (PC3-MM2 cells) was “formed sporadic patches in the cytoplasm” and the “integrin α2 localization” value (PC3-MM2 cells) was “localized as patches in the cytoplasm”. The Kd (Hsp90α) was > 100000 nM, the Kd ([3]; apparent Kd, cGrp94 and FITC-GDA, triplicates, ± SEM, read-out: Kd Grp94) was 720 ± 140 nM and the Kd ([3]; read-out: apparent Kd towards Grp94) was ~724 nM. The viability at 72 h, 25 µM [4] was > 95%.

With `NC(=O)c1ccc(-n2cccc2Cc2ccccc2O)cc1N[C@H]1CC[C@H](O)CC1` [Compound 8j, 4-(2-(2-hydroxybenzyl)-1H-pyrrol-1-yl)-2-(((1r,4r)-4-hydroxycyclohexyl)amino)benzamide] the viability at 72 h, 25 µM [1] was > 95%, the “levels of integrin α2, integrin αL, Syne2, VAMP2, and Rab10” value [2] was “reduced levels” and the “migration of MDA-MB-231 cells” value (MDA-MB-231 cells) was “inhibited migration”. For the same compound, the “migration of PC-3 MM-2 cells” value (PC-3 MM-2 cells) was “inhibited migration”, the Akt maturation (Akt) was “did not affect” and the F-actin localization (PC3-MM2 cells) was “formed sporadic patches in the cytoplasm”. The “integrin α2 localization” value (PC3-MM2 cells) was “localized as patches in the cytoplasm”, the Hsp70 levels (Hsp70) was “remained unaffected” and the mutant myocilin levels (I477N mutant myocilin) was “significant decrease”. The viability at 72 h, 25 µM [4] was > 95%.
